Laboratory results: patent US11040937B2, “Amide derivative” (TOHOKU UNIVERSITY, priority 2014, dated 2021)
pEC50, pIC50: −log10 of the molar value. Where two headings read alike, the source gives them in different places.

Legend:
A549/OPNluc cells = test: WST assay for cell growth / cell viability; assay type: cell-based, human; conditions: Homo sapiens, A549, A549/OPNluc cells, 48±4 hours, WST-1; read-out: IC50 (concentration for 50% inhibition of cell growth)
Source text: (§1) A reporter vector pOPN1-luc obtained by the insertion of a human OPN promoter sequence (−765 to 23) into the multiple cloning site of pGL-3 basic vector (Promega) expresses luciferase when transfected into animal cells. The pOPN1-luc was transfected into a human non-small cell lung cancer-derived cell line A549 together with pPUR (Clontech) that expresses a puromycin resistance gene (puromycin-N-acetyl-transferase gene), and then cells expressing luciferase which could grow a puromycin-supplemented medium were selected. The selected cells were named “A549/OPNluc cells” and used for observation of luciferase expression inhibitory effect under control of OPN promoter, as described below.
(§2) A test compound was added to a culture containing A549/OPNluc cells to observe its influence on the amount of luciferase expressed in the cells. Here, it can be considered that when the test compound has a cell cytotoxity or cell growth inhibitory effect, the total expression level of luciferase is reduced due to a reduction in the number of living cells that depends on the concentration of the test compound, and therefore the luciferase expression inhibitory effect of the test compound under control of OPN promoter cannot be properly evaluated. For this reason, WST assay for quantification of cell proliferation ability or cell viability by colorimetric measurement was firstly performed to determine IC50 (concentration for 50% inhibition of cell growth) of the test compound for cell growth. Then, luciferase activity measurement was performed to determine EC50 (concentration for 50% inhibition of luciferase expression) of the test compound for luciferase expression under control of OPN promoter.
A549/OPNluc cells were suspended in DMEM medium containing 10% fetal calf serum (FCS) and 1% penicillin/streptomycin (P/S) at 3×10^4 cells/mL to obtain a cell suspension, and then the cell suspension was dispensed into each well of a 96-well plate in an amount of 100 μL. In order to perform the assay in triplicate, wells were prepared for a control group, and 3 wells were prepared for each test compound-treated group at each concentration. After the dispensation, the 96-well plate was incubated in a CO2 incubator (at 37° C. and 5% CO2) for 24±4 hours.
The present compound was dissolved in dimethylsulfoxide (DMSO) to obtain a 50 mmol/L solution, and the compound solution was stored at −80° C. The compound solution was diluted with DMSO in 2-fold dilution series (usually, in the range of 0.31 mmol/L to 20 mmol/L) to prepare test compound solutions whose concentration varied by two fold for WST assay.
Each solution of only DMSO (control) and the diluted test compound (sample) was dispensed into each well containing the cell suspension in an amount of 0.5 μL (200-fold dilution). The solution in each well was mixed with a vortex mixer, and then the 96-well plate was incubated in a CO2 incubator (at 37° C. and 5% CO2) for 48±4 hours. Then, Premix WST-1 Reagent (TAKARA BIO INC.) was added in an amount of 10 μL to each well. The solution in each well was mixed with a vortex mixer, and then the 96-well plate was incubated at 37° C. and 5% CO2. After 60 minutes or 120 minutes, the absorbance values (450 nm) were measured with a microplate reader (Bio-Rad; Benchmark or Thermo Scientific; Varioskan Flash).
The absorbance values of the control wells and the sample wells at each concentration were input into an Excel file to determine the percentages of absorbance values of the sample wells at each concentration with to the average absorbance value of the control wells. From the determined values, a fitted curve was determined by the method of least squares to calculate IC50.

[1] = test system: human OPN promoter (pOPN1-luc) in A549/OPNluc cells; test: Luciferase assay: luciferase expression under control of OPN promoter; assay type: cell-based; conditions: Homo sapiens
Source text: as §1, §2
The same steps as in the above-mentioned WST assay were performed in which each solution of only DMSO (control) or the diluted test compound (sample) was added in an amount of 0.5 μL to each well containing the cell suspension to achieve 200-fold dilution, and the solution in each well was mixed with a vortex mixer, and the 96-well plate was incubated in a CO2 incubator (at 37° C. and 5% CO2) for 48±4 hours.
Luciferase Assay Substrate (hereinafter referred to as “LAS”) supplied in Luciferase Assay Systems (Promega: Cat #E1500) was dissolved in Luciferase Assay Buffer (LAB) to prepare a luciferase reagent. 5×Cell Culture Lysis Reagent (hereinafter referred to as “CCLR”) was diluted by 5 times with water to prepare 1×CCLR.
After the incubation for 48±4 hours, the medium in each well was completely removed, and 1×CCLR was dispensed into each well in an amount of 50 μL. The 96-well plate was allowed to stand at room temperature for 30 minutes, and then 1×CCLR in each well was used as an assay sample. The luciferase reagent (100 μL) was placed in a tube for chemiluminescence measurement, and the assay sample (20 μL) was added to the tube and mixed with the luciferase reagent to measure chemiluminescence (Relative Luminescence Intensity: RLU) using TB 20/20 (Promega) or GloMax 20/20 (Promega).
The RLU values of the control wells and the sample wells at each concentration were input into an Excel file, and the percentages of RLU values of the sample wells at each concentration to the average RLU value of the control wells were determined. From these values, a fitted curve was determined by the method of least squares to calculate EC50. Also, the percentages of RLU values of the sample wells at each concentration to the average RLU value of the control wells were divided by the percentages of absorbance values of the compounds in WST assay at the same concentrations as those of this assay (to the control), and a fitted curve was determined from the calculated values by the method of least squares to calculate corrected EC50.

[2] = A549, A549/OPNluc cells, 48±4 hours, read-out: EC50 (concentration for 50% inhibition of luciferase expression)
[3] = A549, EC50 corrected for decrease in viable cells (RLU % divided by WST %), read-out: corrected EC50

Row | SMILES | pIC50 (A549/OPNluc cells) | pEC50 [1, 2] | pEC50 [1, 3]
1 | COc1ccc(Oc2cccc(C(=O)NCCNC(=O)c3ccc(O)cc3)c2)cc1 [Compound 21, N-(2-(3-(4-Methoxyphenoxy)benzoylamino)ethyl)-4-hydroxybenzamide] | 4.02 | 4.79 | 4.77
2 | Nc1c(Oc2ccc(O)cc2)cccc1C(=O)CCNC(=O)C1CCCCC1 [Compound 10, N-(3-(2-Amino-3-(4-hydroxyphenoxy)phenyl)-3-oxopropyl)-cyclohexanecarboxamide] | 4.28 | 4.50 | 4.38
3 | COc1ccc(Oc2ccccc2NC(=O)CCNC(=O)c2ccc(O)cc2)cc1 [Compound 29, N-(3-(2-(4-methoxyphenoxy)phenylamino)-3-oxopropyl)-4-hydroxybenzamide] | < 4.00 | 4.29 | 4.21
4 | O=C(CCNC(=O)c1cccs1)Nc1cccc(Oc2ccc(Cl)cc2)c1 [Compound 35, N-(3-(3-(4-Chlorophenoxy)phenylamino)-3-oxopropyl)thiophene-2-carboxamide] | 4.13 | 4.62 | 4.38
5 | Nc1c(Oc2ccc(C(F)(F)F)cc2)cccc1C(=O)CCNC(=O)c1ccc(O)cc1 [Compound 15, N-(3-(2-Amino-3-(4-(trifluoromethyl)phenoxy)phenyl)-3-oxopropyl)-4-hydroxybenzamide] | 4.45 | 5.25 | 5.28
6 | Nc1c(Oc2ccc(O)cc2)cccc1C(=O)CCNC(=O)c1ccc(F)cc1 [Compound 9, N-(3-(2-Amino-3-(4-hydroxyphenoxy)phenyl)-3-oxopropyl)-4-fluorobenzamide] | 4.03 | 4.38 | 4.18
7 | COc1ccc(C(=O)NCCC(=O)c2cccc(Oc3ccc(O)cc3)c2N)cc1 [Compound 4, N-(3-(2-Amino-3-(4-hydroxyphenoxy)phenyl)-3-oxopropyl)-4-methoxybenzamide] | 4.17 | 4.56 | 4.43
8 | Nc1c(Oc2ccc(O)cc2)cccc1C(=O)CCNC(=O)C1CCOCC1 [Compound 11, N-(3-(2-Amino-3-(4-hydroxyphenoxy)phenyl)-3-oxopropyl)-(tetrahydro-2H-pyran-4-yl)-carboxamide] | 3.70 | 3.78 | 
9 | COc1ccc(Oc2cccc(C(=O)CCNC(=O)c3ccc(O)cc3)c2N)cc1OC [Compound 16, N-(3-(2-Amino-3-(3,4-dimethoxyphenoxy)phenyl)-3-oxopropyl)-4-hydroxybenzamide] | 4.46 | 5.01 | 4.90
10 | COc1ccc(Oc2ccccc2C(=O)NCCNC(=O)c2ccc(O)cc2)cc1 [Compound 22, N-(2-(2-(4-Methoxyphenoxy)benzoylamino)ethyl)-4-hydroxybenzamide] | < 4.00 | 4.37 | 4.30
11 | O=C(CCNC(=O)c1ccc(O)cc1)Nc1cccc(Oc2ccc(Cl)cc2)c1 [Compound 24, N-(3-(3-(4-Chlorophenoxy)phenylamino)-3-oxopropyl)-4-hydroxybenzamide] | 4.53 | 5.12 | 4.94
12 | Nc1c(Oc2ccc(O)cc2)cccc1C(=O)CCNC(=O)c1ccc(O)cc1 [Compound 1, N-(3-(2-Amino-3-(4-hydroxyphenoxy)phenyl)-3-oxopropyl)-4-hydroxybenzamide] | 4.18 | 4.77 | 4.61
13 | O=C(Nc1cccc(Oc2ccc(Cl)cc2)c1)C1CN(C(=O)c2ccc(O)cc2)C1 [Compound 31, N-(3-(4-chlorophenoxy)phenyl)-1-(4-hydroxyphenylcarbonyl)azetidine-3-carboxamide] | 4.57 | 5.03 | 4.96
14 | Cc1ccc(Oc2cccc(C(=O)CCNC(=O)c3ccc(O)cc3)c2N)cc1 [Compound 14, N-(3-(2-Amino-3-(4-methylphenoxy)phenyl)-3-oxopropyl)-4-hydroxybenzamide] | 4.21 | 5.25 | 5.30
15 | COc1cccc(C(=O)NCCC(=O)c2cccc(Oc3ccc(O)cc3)c2N)c1 [Compound 7, N-(3-(2-Amino-3-(4-hydroxyphenoxy)phenyl)-3-oxopropyl)-3-methoxybenzamide] | 4.20 | 4.45 | 4.36
16 | Nc1c(Oc2ccc(Cl)cc2)cccc1C(=O)CCNC(=O)c1ccc(O)cc1 [Compound 17, N-(3-(2-Amino-3-(4-chlorophenoxy)phenyl)-3-oxopropyl)-4-hydroxybenzamide] | 4.32 | 5.43 | 5.38
17 | O=C1NCCc2c1[nH]c1c(Oc3ccc(O)cc3)cccc21 [Compound 18, 8-(4-Hydroxyphenoxy)-1,2,3,4-tetrahydro-β-carboline-1-one] | 4.31 | < 4.30 | 
18 | O=C(Nc1cccc(Oc2ccc(Cl)cc2)c1)C1CCCN(C(=O)c2ccc(O)cc2)C1 (centres unmarked) [Compound 33, N-(3-(4-Chlorophenoxy)phenyl)-1-(4-hydroxyphenylcarbonyl)piperidine-3-carboxamide] | 4.59 | 5.07 | 4.95
19 | CC(=O)Nc1ccc(C(=O)NCCC(=O)c2cccc(Oc3ccc(Cl)cc3)c2N)cc1 [Compound 20, N-(3-(2-amino-3-(4-chlorophenoxy)phenyl)-3-oxopropyl)-4-acetylaminobenzamide] | < 4.00 | 4.79 | 4.74
20 | Nc1c(O)cccc1C(=O)CCNC(=O)c1ccc(O)cc1 [Compound 13, N-(3-(2-Amine-3-hydroxyphenyl)-3-oxopropyl)-4-hydroxybenzamide] | < 3.70 | < 3.70 | 
21 | COc1ccc(Oc2cccc(C(=O)CCNC(=O)c3ccc(OC)cc3)c2N)cc1 [Compound 5, N-(3-(2-Amino-3-(4-methoxyphenoxy)phenyl)-3-oxopropyl)-4-methoxybenzamide] | 4.19 | 4.71 | 4.65
22 | O=C(Nc1cccc(Oc2ccc(Cl)cc2)c1)C1CCN(C(=O)c2ccc(O)cc2)C1 (centres unmarked) [Compound 32, N-(3-(4-chlorophenoxy)phenyl)-1-(4-hydroxyphenylcarbonyl)pyrrolidine-3-carboxamide] | 4.61 | 5.10 | 5.03
23 | CC(=O)NCCC(=O)c1cccc(Oc2ccc(O)cc2)c1N [Compound 8, N-(3-(2-Amino-3-(4-hydroxyphenoxy)phenyl)-3-oxopropyl)-acetamide] | < 4.00 | < 4.00 | 
